≈ marks a conversion by molar mass, not a printed value. Where two headings read alike, the source gives them in different places. Values belong to the compound of their own block, whether it stands above or below them.
Assays:
[1] = CYPs and UGTs dual-activity microsomal stability; type: in vitro ADME; settings: human liver microsomes; alamethicin, NADPH and UDPGA cofactors; 37 °C, 60 min
Method: In this study, the CYPs and UGTs “dual‐activity” microsomal stability assay was carried out to follow the loss of the test compounds over time under CYP‐ and UGT‐mediated metabolic pathways. In detail, the compounds were added to human liver microsomes in the presence of alamethicin, NADPH and UDPGA as cofactors.[24] Alamethicin, a pore‐forming peptide, was used to activate UGTs in human liver microsomes. Testosterone was used as positive control while the negative control was prepared by incubation of the compounds without cofactors up to 60 min. The negative control is essential to detect problems such as non‐specific protein binding or heat instability.
Instrumentation and chromatographic conditions. The metabolic stability of investigated compounds was monitored using a Nexera UHPLC system (Shimadzu, Kyoto, Japan) consisting of a CBM‐20A controller, two LC‐30AD pumps, an SPD‐M20A photo diode array detector, a CTO‐20AC column oven and, a SIL‐30AC autosampler. The chromatographic analyses were accomplished on a Kinetex® Evo C18 column, 150×2.1 mm×2.6 μm (Phenomenex®, Bologna, Italy) maintained at 40 °C. The optimal mobile phase consisted of 0.1 % HCOOH/H2O v/v (A) and 0.1 % HCOOH/ACN v/v (B) delivered at constant flow rate of 0.5 mL/min ^−1. Analysis was performed in gradient elution as follows: 0–8.00 min, 5–95 % B; 8.00–10.00 min, isocratic to 95 % B; then five minutes for column re‐equilibration. Data acquisition was set in the range 190–800 nm and chromatograms were monitored at 254 nm.
In vitro drug metabolism using human liver microsomes. 25 μL of 5 mg/mL human […] microsomes (Thermo Fisher Scientific, Bremen, Germany) were pre‐incubated with 0.625 μL of 100 μg/mL alamethicin. Then 2.5 μL of sample (5 mM) with 168 μL of 100 mM phosphate buffer (pH 7.4), 4 μL of 500 mM MgCl2 were added, the mixture was incubated at 37 °C for 5 min. Optimal UGT activity can be achieved by the addition of MgCl2 and alamethicin as pore forming antibiotic. These components allow for the efficient transfer of a glucuronide product and the cofactor uridine 5′‐diphospho‐α‐D‐glucuronic acid (UDPGA) within the microsomal matrix. The reaction has started by adding 50 μL of mix NADPH 20 mM and UDP‐GlcUA 20 mM as cofactors (1 : 1 v/v) and carried out 37 °C for 60 min in a Thermomixer comfort (Eppendorf, Hamburg, Germany). The reaction was stopped by the addition of 200 μL ice‐cold acetonitrile and then samples were centrifuged at 14,000 rpm at 25 °C for 5 min (Eppendorf® microcentrifuge 5424, Hamburg, Germany). The supernatants were collected and injected in UHPLC. The control at 0 min was obtained by addition of ice‐cold acetonitrile immediately after incubation with microsomes. […]

[2] = Nephelometric solubility determination; type: physicochemical; settings: for solubility: aqueous buffer, kinetic from dmso stock, PBS with 1 % DMSO, tested at 50 and 100 μM, room temperature, read-out: Solubility (highest concentration where no precipitate was detected)
Method: Solubility determination. Solubility of the compounds was determined using Nepheloskan Ascent® (Labsystems). The experiments were performed at room temperature in 96‐well plates in a final volume of 300 μL. Each compound was tested in quadruplicate at the concentrations of 50 and 100 μM in PBS with 1 % DMSO. The measurements were performed at 4 different time points (T0, 30 min, 60 min, 90 min) from the preparation of the samples. Data obtained were compared to control (PBS with 1 % DMSO) and the ratio sample/control was determined for each compound. Compounds are considered soluble if the ratio is≤3.

in vitro = settings: PAMPA, pH 7.4
Method: Membrane permeability was estimated by the well‐validated parallel artificial membrane permeability assay (PAMPA) technique.[17, 26]
Parallel Artificial Membrane Permeability Assay (PAMPA). Donor solution (0.2 mM) was prepared by diluting 20 mM dimethyl sulfoxide (DMSO) compound stock solution using phosphate buffer (pH 7.4, 0.01 M). Filters were coated with 5 μL of a 1 % (w/v) dodecane solution of L‐α‐phosphatidylcholine. Donor solution (150 μL) was added to each well of the filter plate. To each well of the acceptor plate, 300 μL of solution (5 % DMSO in phosphate buffer) was added. […] The sandwich was incubated for 24 h at room temperature under gentle shaking. After the incubation time, the sandwich plates were separated and 250 μL of the acceptor plate was transferred to a UV quartz microtiter plate and measured by UV spectroscopy, using a Multiskan GO microplate spectrophotometer (Thermo Fisher Scientific) at 250–500 nm at a step of 5 nm. Reference solutions (250 μL) were prepared diluting the sample stock solutions to the same concentration as that with no membrane barrier.
In this equation, VR is the volume of the acceptor compartment (0.3 cm^3), VD is the donor volume (0.15 cm^3), A is the accessible filter area (0.24 cm^2), and t is the incubation time in seconds.

[3] = tested on: BD1 and BD2 of BET proteins (BRD2, BRD3, BRD4 and BRDT); test: Protein stability shift assay (ΔTm), BET bromodomains; type: binding; settings: compound 10 μM; protein 2 μM
Method: The compounds were tested at 10 μM fixed dose and the pan‐BET inhibitor 1 was used as a reference compound.[22] The results obtained from this screening supported our design strategy.
Protein stability shift assay. Thermal melting experiments were carried out using an Mx3005p Real Time PCR machine (Stratagene). Proteins were buffered in 10 mM HEPES pH 7.5, 500 mM NaCl and assayed in a 96‐well plate at a final concentration of 2 μM in 20 μL volume. Compounds were added at a final concentration of 10 μM. SYPRO Orange (Molecular Probes) was added as a fluorescence probe at a dilution of 1 : 1000. Excitation and emission filters for the SYPRO‐Orange dye were set to 465 nm and 590 nm, respectively. The temperature was raised with a step of 3 °C per minute from 25 °C to 96 °C and fluorescence readings were taken at each interval. The temperature dependence of the fluorescence during the protein denaturation process was approximated by the equation yT=yF+yU-yF/1+e^ΔuGT/RT
where ΔuG(T) is the difference in unfolding free energy between the folded and unfolded state, R is the gas constant and yF and yU are the fluorescence intensity of the probe in the presence of completely folded and unfolded protein, respectively. The baselines of the denatured and native states were approximated by a linear fit. The observed temperature shifts, ΔTm obs, were recorded as the difference between the transition midpoints of sample and reference wells containing protein without ligand in the same plate and determined by non‐linear least squares fit.

BRD2(BD1) = target: T1, BRD2(BD1) (Homo sapiens, UniProt P25440); test: TR-FRET displacement binding assay; settings: AlexaFluor647 derivative of 1
T1 construct: tested on BD1 and BD2 domains (6×His‐tagged) of each BET protein
T1 sequence (P25440 74-180 limits assumed): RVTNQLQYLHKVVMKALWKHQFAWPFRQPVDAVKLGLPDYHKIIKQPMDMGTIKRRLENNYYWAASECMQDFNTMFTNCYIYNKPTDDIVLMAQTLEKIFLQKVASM
Method: (§1) TR‐FRET assay. […] Compound was diluted in assay buffer (150 mM HEPES, 150 mM NaCl, 5 % glycerol, 1 mM DTT, and 1 mM CHAPS, pH 7.4), starting from a stock solution of 10 mM (100 % DMSO). The highest concentration tested was 100 μM and from this concentration 11 three‐fold dilutions were prepared. […] TR‐FRET ratio was calculated using the following equation: ratio=acceptorfluorescenceat665nm/donorfluorescenceat615nm×1000
(§2) Compound was tested in triplicate and data were analyzed using GraphPad Prism software (version 8.0) using the equation log(inhibitor) vs. normalized response‐variable slope.

BRD2(BD2) = target: T2, BRD2(BD2) (Homo sapiens, UniProt P25440); test: TR-FRET displacement binding assay; settings: AlexaFluor647 derivative of 1
T2 construct: tested on BD1 and BD2 domains (6×His‐tagged) of each BET protein
T2 sequence (P25440 344-453 limits assumed): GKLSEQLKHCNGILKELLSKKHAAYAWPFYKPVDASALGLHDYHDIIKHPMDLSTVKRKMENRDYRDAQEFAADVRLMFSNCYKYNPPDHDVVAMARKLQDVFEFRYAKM
Method: as §1, §2

BRD3(BD1) = target: T3, BRD3(BD1) (Homo sapiens, UniProt Q15059); test: TR-FRET displacement binding assay; settings: AlexaFluor647 derivative of 1
T3 construct: tested on BD1 and BD2 domains (6×His‐tagged) of each BET protein
T3 sequence (Q15059 34-140 limits assumed): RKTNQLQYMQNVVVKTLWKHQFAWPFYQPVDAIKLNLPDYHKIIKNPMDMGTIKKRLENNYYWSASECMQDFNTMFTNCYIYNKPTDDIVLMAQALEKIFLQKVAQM
Method: as §1, §2

BRD3(BD2) = target: T4, BRD3(BD2) (Homo sapiens, UniProt Q15059); test: TR-FRET displacement binding assay; settings: AlexaFluor647 derivative of 1
T4 construct: tested on BD1 and BD2 domains (6×His‐tagged) of each BET protein
T4 sequence (Q15059 306-415 limits assumed): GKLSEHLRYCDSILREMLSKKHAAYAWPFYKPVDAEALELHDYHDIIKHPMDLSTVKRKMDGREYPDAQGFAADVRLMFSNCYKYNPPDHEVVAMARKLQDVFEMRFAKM
Method: as §1, §2

HeLa cells = test: MTT cell viability assay; type: cell-based, human; settings: 50 μM, 72 h
Method: Cells were incubated with different compound concentrations (50 μM, 5 μM and 0.5 μM) for different times (24, 48 and 72 h) and cellular viability was determined performing an MTT (3‐(4,5‐dimethylthiazol‐2‐yl)‐2,5‐diphenyl‐2H‐tetrazolium bromide) assay.
Cell Viability Assay. HeLa cell line was cultured in DMEM supplemented with 10 % (v/v) fetal bovine serum, 100 U/mL penicillin, 100 μg/mL streptomycin, and 2 mM L‐glutamine at 37 °C in a 5 % CO2 atmosphere. Cell viability was determined using a 3‐(4,5‐dimethylthiazol‐2‐yl)‐2,5‐diphenyltetrazolium bromide (MTT) assay. […] The mitochondrial dependent reduction of MTT to formazan was used to assess cell viability. Live cells reduce yellow MTT to purple formazan. The formazan was solubilized in DMSO, and absorbance was measured at 550 nm and corrected for 620 nm background. Experiments were performed in quadruplicate and all values are expressed as the percentage of the control containing 1 % DMSO.

[4] = parameters: method as in PMID 32193360; settings: cited from earlier work
BD1 of BET proteins = settings: cited from earlier work
BD1 in all BET proteins = settings: cited from earlier work
MV4‐11 cell line = settings: read-out: IC50 cell growth MV4‐11; cited from earlier work
HL60 cell line = settings: read-out: IC50 cell growth HL60; cited from earlier work
THP‐1 cell line = settings: read-out: IC50 cell growth THP‐1; cited from earlier work
BRD4 BD1 = target: T5, BRD4 BD1 (Homo sapiens, UniProt O60885); settings: cited from earlier work
T5 construct: The microsyringe was loaded with a solution of BRD4 BD1; His6 (cleaved yes); made in house; host or cells: E. coli BL21(DE3)-R3-pRARE2

BRD4 BD2 = settings: cited from earlier work
[5] = tested on: BD1 and BD2 of BRD2 and BRD3; settings: cited from earlier work

Compound: Cc1cc(-c2nc3ccc(S(=O)(=O)Nc4ccccn4)cc3[nH]2)cc(C)c1O [9 a, 2‐(4‐hydroxy‐3,5‐dimethylphenyl)‐N‐(pyridin‐2‐yl)‐1H‐benzo[d]imidazole‐6‐sulfonamide]
- CYPs and UGTs “dual‐activity” microsomal stability (percentage of the parent compound turnover) [1]: 1.0±0.3%
- Solubility at 100 μM ([2]; 100 μM, aqueous solution with 1 % DMSO): still soluble
- solubility [2]: 100 µM (≈ 39.4 µg/mL)
- Papp at 24 h, 0.2 mM (in vitro): 0.107 ×10⁻⁶ cm/s
- ΔTm screening against BET bromodomains [3]: increase in the melting temperature of all BET proteins
- IC50 (BRD2(BD1)): 126 ± 19 nM
- IC50 (BRD2(BD2)): 22000 ± 8000 nM
- IC50 (BRD3(BD1)): 180 ± 20 nM
- IC50 (BRD3(BD2)): 7000 ± 3000 nM
- Decrease of cell viability (HeLa cells): around 30%

Compound: COCc1nc2cnc3cc(-c4c(C)noc4C)c(OC[C@H]4CCNC4)cc3c2n1[C@H](C)c1ccccc1 [Compound 5, GSK778]
- Pharmacokinetic properties [4]: poor pharmacokinetic properties

Compound: CC(=O)NCCCCn1c2c(c3ccccc31)C(=O)NCC2 [Olinone]
- Kd (BD1 of BET proteins): 3400 nM

Compound: Cc1cc2c(-c3ccco3)cnc(N[C@@H]3CCN(C)C[C@H]3C(=O)NC3CCCCC3)c2[nH]c1=O [Compound 6, GSK789]
- IC50 (BD1 in all BET proteins): 30 nM
- Selectivity for BD1 over BD2 in all BET proteins (BD1 in all BET proteins): 1000 fold
- IC50 (MV4‐11 cell line): 25 nM
- IC50 (HL60 cell line): 390 nM
- IC50 (THP‐1 cell line): 258 nM

- CYPs and UGTs “dual‐activity” microsomal stability (percentage of the parent compound turnover) [1]: 7.5±1.0%
- solubility [2]: 50 µM (≈ 20.3 µg/mL)
- Papp at 24 h, 0.2 mM (in vitro): 1.1 ×10⁻⁶ cm/s
Compound: Cc1cc(/N=N/c2ccc(S(=O)(=O)Nc3ccc(C#N)cc3)cc2)cc(C)c1O [7 b, MS611]
- Ki (BRD4 BD1): 410 nM
- Ki (BRD4 BD2): 41300 nM
- Selectivity between BD1 and BD2 of BRD2 and BRD3 (words) [5]: almost no selectivity between each BDs domain of BRD3 and BRD2
- Selectivity between BD1 and BD2 of BRD2 and BRD3 (words) ([5]; listed as MS611): almost no difference in binding affinity between BD1 and BD2 of BRD2 and BRD3
